Experimental data published in US20190201419A1, “COMPOUND AND METHOD FOR THE TREATMENT AND DIAGNOSIS OF NEURODEGENERATIVE CONDITIONS” (Swansea University, priority 2013, published 2019).

Columns and labels:
Lxrβ-LBD = target: T1, Lxrβ-LBD (Homo sapiens, UniProt P55055); assay: Lanthascreen TR-FRET Lxrβ coactivator assay; assay type: binding
T1 construct: the Lxrβ-LBD tagged with glutathione-S-transferase (GST); purchased Invitrogen
T1 sequence (P55055 222-460 limits assumed): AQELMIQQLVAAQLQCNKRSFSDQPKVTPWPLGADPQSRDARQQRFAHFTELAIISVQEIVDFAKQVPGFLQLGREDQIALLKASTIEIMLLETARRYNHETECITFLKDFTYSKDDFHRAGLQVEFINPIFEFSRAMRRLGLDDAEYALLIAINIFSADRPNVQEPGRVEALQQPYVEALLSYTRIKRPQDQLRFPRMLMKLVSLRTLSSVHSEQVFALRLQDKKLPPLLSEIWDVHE
Description: Lxrβ Ligand Binding Assay. For Lxrβ ligand binding activity measurement, the applicants used the Lanthascreen™ TR-FRET Lxrβ Coactivator Assay (Invitrogen). The assay uses a terbium (Tb)-labeled anti-GST antibody, a fluorescein-labeled coactivator peptide and the Lxrβ-LBD tagged with glutathione-S-transferase (GST). Binding of the agonist/ligand to Lxrβ-LBD causes a conformational change that result in an increase in the affinity of the Lxrβ for the coactivator peptide. The close proximity of the fluorescently labeled coactivator peptide to the Tb-labeled antibody causes an increase in the TR-FRET signal intensity. The TR-FRET ratio of 520/495 was calculated using a Victor multi label reader with an excitation wavelength of 340 nm and emission wavelengths of 520 nm and 495 nm, The activational capacity of potential ligands was tested in a […] polypropylene plate, following the manufacturer's protocol.

[1] = test system: Islet1+ oculomotor neurons; assay: Islet1+ cells in mouse E11.5 brain primary cultures; assay type: cell-based; details: for Number of Islet1+ cells / Concentration giving significant difference from vehicle in Islet1+ cells: wild type cultures; for Concentration giving significant difference from vehicle in Islet1+ cells: p<0.05
Outline: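 E11.5 mouse brain cells were plated on poly-D-lysine at 150,000 cells/cm^2 in serum-free N2 medium and treated for 3 DIV. After PFA fixation they were immunostained for cleaved caspase-3, Islet-1, TH, GABA, Brn3a, Nkx6.1 or ChAT. Marker-positive cells were counted at 20× in eight fields per well, three wells per experiment, across three experiments.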

Lxrβ = target: T2, Lxrβ (Homo sapiens, UniProt P55055); assay: Lxrβ luciferase reporter assay in SN4741 neural cells; assay type: cell-based, mouse; details: for Lxr activational capacity in combination with 22R-HC: 10 μM acid + 10 μM 22R-HC; for Lxrβ activation, luciferase activity (fold activation): SN4741 cells, 10 μM, 24 h
T2 construct: expressed in transfected cells; host or cells: SN4741 mouse neuronal cell line
T2 sequence (P55055 1-460): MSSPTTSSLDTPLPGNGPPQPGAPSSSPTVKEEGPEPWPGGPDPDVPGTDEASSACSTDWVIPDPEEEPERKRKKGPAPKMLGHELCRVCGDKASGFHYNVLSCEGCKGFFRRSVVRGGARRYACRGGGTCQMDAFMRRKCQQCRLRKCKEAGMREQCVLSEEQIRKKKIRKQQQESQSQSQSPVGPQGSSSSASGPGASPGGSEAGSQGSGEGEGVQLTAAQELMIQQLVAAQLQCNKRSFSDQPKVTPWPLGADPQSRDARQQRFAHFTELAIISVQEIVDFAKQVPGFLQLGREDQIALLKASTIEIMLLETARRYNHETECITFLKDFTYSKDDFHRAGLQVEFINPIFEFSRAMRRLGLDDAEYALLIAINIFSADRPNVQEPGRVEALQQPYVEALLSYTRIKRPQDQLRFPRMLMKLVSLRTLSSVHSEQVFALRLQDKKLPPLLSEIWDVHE
Description: Luciferase Reporter Assay.

active caspase 3+ cells = assay: Active caspase 3+ cells in mouse E11.5 brain primary cultures; assay type: cell-based; details: for Concentration giving significant difference from vehicle in active caspase 3+ cells: p<0.05; for Number of active caspase-3+ cells: wt cultures, 3β,7α-diHCA, 3βH,7O-CA, 25-HC at 10 μM, toxic acids at low concentrations
Procedure: Primary Brain Cultures. Brains from E11.5 mice were manually dissected, plated on poly-D-lysine (150,000 cells/cm^2) and grown in serum-free N2 media consisting of 1:1 mixture of F12 and DMEM with 10 ng/mL insulin, 100 μg/mL apo-transferrin, 100 μM putrescine, 20 nM progesterone, 30 nM selenium, 6 mg/mL glucose, and 1 mg/mL BSA. Cells were treated for 3 days in vitro (DIV) with the compounds of interest, fixed with 4% PFA and processed for staining using appropriate antibodies.
Antibodies and Detection Procedures. Cells were fixed in 4% PFA, washed in PBS and blocked in 5% normal goat serum/PBS for 1 h at room temperature. Primary antibodies were diluted in PBS (pH 7.4), 0.3% Triton X-100, 1% BSA and incubations were carried out overnight at +4° C. or at room temperature for 2 h. The antibodies used were anti-:BrdU (1:400; Abeam), Islet-1 (1:100: Developmental Studies Hybridoma Bank), cleaved caspase-3 (Aspt 75) (1:100; Cell Signaling Technology), tyrosine hydroxylase (TH; 1:1000; Pel-Freeze) GABA (1:1,000; Sigma), Bm3a (1:250; Millipore), Nkx6.1 (1:200; Novus Biologicals), choline acetyltransferase (ChAT; 1:500; Millipore) and appropriate secondary antibodies (Jackson ImmunoResearch or Alexa). Cells positive for the corresponding marker were counted directly at the microscope at a magnification of 20×. Cells were counted in every well, in eight consecutive fields (going from one side of the well to the other, passing through the center), in three different wells per experiment and in three different experiments per condition. Random pictures of the wells were taken for every condition to document the result, and representative pictures were subsequently selected to represent the quantitative data. Photos were acquired with a Zeiss Axioplan microscope and a Hamamatsu camera C4742-95 using the Openlab software.

Row | SMILES | TR-FRET signal (coactivator recruitment to Lxrβ-LBD) (Lxrβ-LBD; dose response) | Rescue of loss of Islet1+ cells induced by 2 μM 3β,7β-diHCA or 3β-HCA ([1]; 10 μM) | Effect on Islet1+ cells in Lxrα−/−β−/− cultures ([1]; cultures from Lxrα−/−β−/− mice) | Number of Islet1+ cells [1] | Concentration giving significant difference from vehicle in Islet1+ cells [1] | Effect on Islet1+ cells with Lxr antagonist GGPP ([1]; wt cultures, 10 μM GGPP) | Lxr activational capacity in combination with 22R-HC (Lxrβ) | Lxrβ activation, luciferase activity (fold activation) (Lxrβ) | Reduction of neuronal cell death (activated caspase 3) induced by 2 μM 3β,7β-diHCA or 3β-HCA (active caspase 3+ cells; 10 μM) | Effect on active caspase-3+ cells with GGPP (active caspase 3+ cells; 10 μM GGPP, toxic acids at 2 μM) | Concentration giving significant difference from vehicle in active caspase 3+ cells (active caspase 3+ cells) | Number of active caspase-3+ cells (active caspase 3+ cells) | Competition with the effect of 3β,7α-diHCA in TR-FRET (Lxrβ-LBD; 3β,7α-diHCA at 10 μM plus increasing concentrations of competitor) | Competitor concentration giving significant difference from 10 μM 3β,7α-diHCA alone in TR-FRET (Lxrβ-LBD; p<0.05 vs 10 μM 3β,7α-diHCA) | Surviving cells in cultures (active caspase 3+ cells; 10 μM) | Concentration at which toxicity is initiated (active caspase 3+ cells; mouse, primary brain cultures from E11.5 mouse embryos, 3 days)
1 | CC(CCC[C@@H](C)[C@H]1CC[C@H]2[C@@H]3[C@H](O)C=C4C[C@@H](O)CC[C@]4(C)[C@H]3CC[C@]12C)C(=O)O (stereo partly drawn) [3β,7α-diHCA, 3β,7α-dihydroxycholest-5-en-26-oic acid] | induced FRET in a dose dependent manner to a higher degree than the other acids | reversed the loss of Islet1+ cells | eliminated | increased the number of Islet1+ oculomotor cells in the cultures | ≥ 5 µM | blocked by the Lxr antagonist GGPP | No additive effect was observed | have the ability to activate both Lxrs | reduced the neuronal cell death | completely blocked by co-incubation with the Lxr inhibitor GGPP | ≥ 10 µM | decreased the number of active caspase-3+ cells |  |  |  | 
2 | CC(CCC[C@@H](C)[C@H]1CC[C@H]2[C@@H]3CC=C4C[C@@H](O)CC[C@]4(C)[C@H]3CC[C@]12C)C(=O)O (stereo partly drawn) [3β-HCA, 3β-hydroxycholest-5-en-26-oic acid] |  |  |  | caused the loss of Islet1+ cells in the cultures | ≥ 2 µM |  | No additive effect was observed | activates Lxr |  |  | ≥ 2 µM | increased the number of active caspase-3+ cells | the effect of 3β,7α-diHCA was reduced to that of the latter acids | ≥ 5 | no surviving cells were detected | 1 µM
